Among the data in article PMC10763615, “Identification and engineering of potent cyclic peptides with selective or promiscuous binding through biochemical profiling and bioinformatic data analysis” (RSC Chemical Biology, 2023) are Kd values, retold here.

Experiment [1] has as its target T1, FGF-R1C ECD (Homo sapiens, UniProt P11362).
T1 sequence (P11362 22-376 limits assumed): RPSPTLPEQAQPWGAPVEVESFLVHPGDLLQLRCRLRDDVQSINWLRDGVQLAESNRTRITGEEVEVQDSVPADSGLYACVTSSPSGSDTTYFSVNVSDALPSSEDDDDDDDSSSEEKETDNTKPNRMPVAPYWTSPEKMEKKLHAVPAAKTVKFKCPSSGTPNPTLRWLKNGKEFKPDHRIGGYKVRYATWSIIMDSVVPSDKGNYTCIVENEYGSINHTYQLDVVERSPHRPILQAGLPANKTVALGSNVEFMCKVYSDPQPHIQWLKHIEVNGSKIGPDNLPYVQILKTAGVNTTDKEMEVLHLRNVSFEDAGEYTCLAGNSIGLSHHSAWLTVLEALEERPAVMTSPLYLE
As to the kind of experiment: biochemical. As to the method: (§1) KD affinity binding measurements were obtained by biolayer interferometry (BLI) instruments (Fortebio Octet HTX, or Sartorius Octet RH16 using either 8 or 16 channel mode.
(§2) For single concentration binding experiments, 50 μM peptide stocks in folding buffer were diluted 1:50 in mRNA display selection buffer (PBS pH7.4 supplemented with 0.05% Tween-20 and 0.01% BSA) in either a 96 well black plate, or a 384 well tilted bottom microplate (ForteBio). Biotinylated FGF-R protein was loaded onto Streptavidin-functionalised biosensors (ForteBio) and immersed into ~1 μM peptide to obtain association kinetics curves. Dissociation kinetics curves were obtained by subsequent immersion of ligand-associated loaded sensors into a 1:50 dilution of folding buffer in mRNA display selection buffer. Fitted KD data was adjusted for concentration as determined by UPLC-CAD.
(§3) For accurate multi-concentration KD determination, dilution series of each peptide were made, and association and dissociation kinetics curves were obtained as above for each concentration to fit a multi-point KD binding model. Data collection and analysis was performed using the Octet Instrument Control […]
(§4) concentration assay kinetics curves shown in supplementary Figure S 19-24.

The target in experiment [2] is T2, FGF-R3C ECD (Homo sapiens, UniProt P22607).
T2 sequence (P22607 23-375 limits assumed): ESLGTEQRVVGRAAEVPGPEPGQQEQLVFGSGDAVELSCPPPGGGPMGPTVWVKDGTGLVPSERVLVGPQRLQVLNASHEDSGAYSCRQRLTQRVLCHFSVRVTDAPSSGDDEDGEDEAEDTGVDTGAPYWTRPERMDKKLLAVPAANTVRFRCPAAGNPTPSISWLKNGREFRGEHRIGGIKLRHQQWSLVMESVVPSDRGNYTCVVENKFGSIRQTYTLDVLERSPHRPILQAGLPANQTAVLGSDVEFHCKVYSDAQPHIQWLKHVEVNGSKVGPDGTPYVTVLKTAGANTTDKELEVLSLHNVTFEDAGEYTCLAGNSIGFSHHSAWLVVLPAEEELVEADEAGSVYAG
Description: biochemical. As to the method: as §1, §2, §3, §4

The target of experiment [3] is T3, FGF-R4 ECD (Homo sapiens, UniProt P22455).
T3 construct: DNA constructs for the extracellular domain (ECD) of human FGF-; HPC4 (C); made in house; host or cells: HEK 293-6E
T3 sequence (P22455 22-369 limits assumed): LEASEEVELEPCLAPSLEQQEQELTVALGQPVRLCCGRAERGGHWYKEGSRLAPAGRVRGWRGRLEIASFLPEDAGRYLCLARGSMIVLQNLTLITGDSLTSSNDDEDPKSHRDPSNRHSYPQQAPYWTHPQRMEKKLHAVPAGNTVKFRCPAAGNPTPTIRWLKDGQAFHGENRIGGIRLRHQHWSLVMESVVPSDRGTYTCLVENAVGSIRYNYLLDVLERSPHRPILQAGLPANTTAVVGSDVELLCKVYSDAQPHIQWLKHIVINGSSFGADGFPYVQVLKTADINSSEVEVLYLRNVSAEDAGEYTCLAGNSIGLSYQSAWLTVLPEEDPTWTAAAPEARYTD
Description: multi-concentration BLI of purified peptides. The format is binding. Conditions: purified trimer-18 library peptides. As to the method: as §1, §2, §3, §4

Experiment [4] has as its target T3, FGF-R4 ECD. As to the kind of experiment: single concentration BLI of crude peptides. The format is binding. The conditions noted are these: read-out: KD (4). The method in brief: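 Streptavidin biosensors carrying biotinylated FGF receptor ECD were immersed in peptide (~1 μM for crude single-point runs, a concentration series for purified peptides) and then in peptide-free buffer. KD was obtained by fitting the BLI association and dissociation curves.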

In experiment [5] the target is T1, FGF-R1C ECD. As to the kind of experiment: biochemical. On the set-up: DNA constructs for the extracellular domain (ECD) of human FGF-; HPC4 (C); made in house; host or cells: HEK 293-6E. The class given is binding. The method in brief: (§5)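 Biolayer interferometry with biotinylated FGF-R ECD on streptavidin biosensors in PBS pH 7.4, 0.05% Tween-20, 0.01% BSA. Multi-concentration: purified peptide dilution series fitted to a multi-point KD model.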

Experiment [6] deals with T2, FGF-R3C ECD. Description: biochemical. The class given is binding. Further details: DNA constructs for the extracellular domain (ECD) of human FGF-; HPC4 (C); made in house; host or cells: HEK 293-6E. The method in brief: as §5
Where [7] appears, read: crude T18 selection 1 (1:1:1) peptides, single concentration BLI (Table S4).

Where two headings read alike, the source gives them in different places. Positions of bridges follow the written chain, without caps; N, C: chain ends. Residues, ends and D or L forms follow the SMILES beside them. Some results are limits rather than exact numbers.

As a reminder, the Kd is a measure of binding affinity in units of concentration.

Take `CSCC[C@H](NC(C)=O)C(=O)N[C@H]1CSSC[C@@H](C(=O)NCC(=O)N[C@@H](CO)C(=O)NCC(=O)N[C@@H](CO)C(=O)N[C@@H](CC(=O)O)C(=O)N[C@@H](Cc2ccc(O)cc2)C(=O)N[C@@H](CCCCN)C(=O)N[C@@H](CC(=O)O)C(=O)N[C@@H](CC(=O)O)C(=O)N[C@@H](CC(=O)O)C(=O)N[C@@H](CC(=O)O)C(=O)N[C@@H](CCCCN)C(N)=O)NC(=O)[C@H](CCCNC(=N)N)NC(=O)[C@H](CCCNC(=N)N)NC(=O)[C@H](Cc2c[nH]cn2)NC(=O)[C@H](CO)NC(=O)[C@H](CC(C)C)NC(=O)[C@H](CC(C)C)NC(=O)[C@H](Cc2ccc(O)cc2)NC(=O)[C@H](Cc2ccc(O)cc2)NC(=O)[C@H](Cc2ccc(O)cc2)NC(=O)[C@H](CC(C)C)NC(=O)[C@H](Cc2c[nH]cn2)NC(=O)[C@H](CCC(=O)O)NC1=O` [4.23]: the dissociation constant Kd on FGF-R1C ECD [1] is > 1000 nM; at FGF-R3C ECD [2], > 1000 nM; at FGF-R4 ECD [3] it was 3 nM.
Turning to `CC[C@H](C)[C@@H]1NC(=O)[C@@H]2CCCN2C(=O)[C@H](CC(C)C)NC(=O)[C@@H]2CCCN2C(=O)[C@H](Cc2c[nH]c3ccccc23)NC(=O)[C@@H]2CCCN2C(=O)[C@H](Cc2ccccc2)NC(=O)[C@H](CCCCN)NC(=O)[C@H]([C@@H](C)O)NC(=O)[C@@H](NC(=O)[C@@H](N)CCSC)CSSC[C@@H](C(=O)NCC(=O)N[C@@H](CO)C(=O)NCC(=O)N[C@@H](CO)C(=O)N[C@@H](CC(=O)O)C(=O)N[C@@H](Cc2ccc(O)cc2)C(=O)N[C@@H](CCCCN)C(=O)N[C@@H](CC(=O)O)C(=O)N[C@@H](CC(=O)O)C(=O)N[C@@H](CC(=O)O)C(=O)N[C@@H](CC(=O)O)C(=O)N[C@@H](CCCCN)C(N)=O)NC(=O)[C@H](C)NC(=O)[C@H](Cc2c[nH]c3ccccc23)NC(=O)[C@H](Cc2ccccc2)NC1=O` (H-MCTKFPWPLPIFWACGSGSDYKDDDDK-NH2; disulfide 2-15), the Kd at FGF-R4 ECD [4] (crude NNK peptides, single concentration BLI (Table S3)) is 346 nM; at FGF-R1C ECD [5], 545 nM; on FGF-R3C ECD [6] it was > 10 µM.
In the case of `CSCC[C@H](NC(C)=O)C(=O)N[C@H]1CSSC[C@@H](C(=O)NCC(=O)N[C@@H](CO)C(=O)NCC(=O)N[C@@H](CO)C(=O)N[C@@H](CCC(=O)O)C(=O)N[C@@H](CCC(=O)O)C(=O)NCC(=O)N[C@@H](CO)C(=O)NCC(=O)N[C@@H](CO)C(=O)N[C@@H](CC(=O)O)C(=O)N[C@@H](Cc2ccc(O)cc2)C(=O)N[C@@H](CCCCN)C(=O)N[C@@H](CC(=O)O)C(=O)N[C@@H](CC(=O)O)C(=O)N[C@@H](CC(=O)O)C(=O)N[C@@H](CC(=O)O)C(=O)N[C@@H](CCCCN)C(N)=O)NC(=O)[C@H](CCCCN)NC(=O)[C@H](CCCCN)NC(=O)[C@H](CCC(N)=O)NC(=O)[C@H](Cc2ccc(O)cc2)NC(=O)[C@H](CCCCN)NC(=O)[C@H](Cc2ccc(O)cc2)NC(=O)[C@H](Cc2c[nH]c3ccccc23)NC(=O)[C@H](CC(C)C)NC(=O)[C@H](C(C)C)NC(=O)[C@H]([C@@H](C)O)NC(=O)[C@H](Cc2ccc(O)cc2)NC1=O` (Ac-MCYTVLWYKYQKKCGSGSEEGSGSDYKDDDDK-NH2; disulfide 2-14), the Kd at FGF-R4 ECD [4] (setting [7]) was 1 nM; on FGF-R1C ECD [5], > 10000 nM; at FGF-R3C ECD [6], > 10 µM.
For `CC[C@H](C)[C@@H]1NC(=O)[C@@H](NC(=O)[C@H](CCSC)NC(C)=O)CSSC[C@@H](C(=O)NCC(=O)N[C@@H](CO)C(=O)NCC(=O)N[C@@H](CO)C(=O)N[C@@H](CC(=O)O)C(=O)N[C@@H](Cc2ccc(O)cc2)C(=O)N[C@@H](CCCCN)C(=O)N[C@@H](CC(=O)O)C(=O)N[C@@H](CC(=O)O)C(=O)N[C@@H](CC(=O)O)C(=O)N[C@@H](CC(=O)O)C(=O)N[C@@H](CCCCN)C(N)=O)NC(=O)[C@H](CC(C)C)NC(=O)[C@H](CC(C)C)NC(=O)[C@H](Cc2ccc(O)cc2)NC(=O)[C@H](Cc2ccc(O)cc2)NC(=O)[C@H](Cc2ccccc2)NC(=O)[C@H](CC(C)C)NC(=O)[C@H](Cc2c[nH]cn2)NC(=O)[C@H](CC(C)C)NC(=O)[C@H](CC(=O)O)NC(=O)[C@H](CCCCN)NC1=O` (Ac-MCIKDLHLFYYLLCGSGSDYKDDDDK-NH2; disulfide 2-14), the Kd was 14 nM on FGF-R4 ECD [4] (setting [7]), 30 nM at FGF-R1C ECD [5] and > 10 µM at FGF-R3C ECD [6].
With `CC[C@H](C)[C@@H]1NC(=O)[C@H](CCCCN)NC(=O)[C@H](Cc2ccc(O)cc2)NC(=O)[C@H](Cc2c[nH]c3ccccc23)NC(=O)[C@H](CC(C)C)NC(=O)[C@H](C(C)C)NC(=O)[C@H]([C@@H](C)O)NC(=O)[C@H](Cc2ccc(O)cc2)NC(=O)[C@H](CC(C)C)NC(=O)[C@H](CC(=O)O)NC(=O)[C@@H](NC(=O)[C@H](CCSC)NC(C)=O)CSSC[C@@H](C(=O)NCC(=O)N[C@@H](CO)C(=O)NCC(=O)N[C@@H](CO)C(=O)N[C@@H](CC(=O)O)C(=O)N[C@@H](Cc2ccc(O)cc2)C(=O)N[C@@H](CCCCN)C(=O)N[C@@H](CC(=O)O)C(=O)N[C@@H](CC(=O)O)C(=O)N[C@@H](CC(=O)O)C(=O)N[C@@H](CC(=O)O)C(=O)N[C@@H](CCCCN)C(N)=O)NC(=O)[C@H](CCC(=O)O)NC(=O)[C@H](CCCCN)NC(=O)[C@H](CCC(N)=O)NC1=O` (Ac-MCDLYTVLWYKIQKECGSGSDYKDDDDK-NH2; disulfide 2-16), the Kd was 19 nM at FGF-R4 ECD [4] (setting [7]), 21 nM at FGF-R1C ECD [5] and > 10 µM at FGF-R3C ECD [6].
As to `CC[C@H](C)[C@@H]1NC(=O)[C@H](Cc2ccc(O)cc2)NC(=O)[C@H](CCCCN)NC(=O)[C@H](C(C)C)NC(=O)[C@@H](NC(=O)[C@H](CCSC)NC(C)=O)CSSC[C@@H](C(=O)NCC(=O)N[C@@H](CO)C(=O)NCC(=O)N[C@@H](CO)C(=O)N[C@@H](CC(=O)O)C(=O)N[C@@H](Cc2ccc(O)cc2)C(=O)N[C@@H](CCCCN)C(=O)N[C@@H](CC(=O)O)C(=O)N[C@@H](CC(=O)O)C(=O)N[C@@H](CC(=O)O)C(=O)N[C@@H](CC(=O)O)C(=O)N[C@@H](CCCCN)C(N)=O)NC(=O)[C@H](Cc2c[nH]cn2)NC(=O)[C@H](Cc2ccccc2)NC(=O)[C@H](C(C)C)NC(=O)[C@H](CO)NC(=O)[C@H](Cc2c[nH]c3ccccc23)NC(=O)[C@H](Cc2ccc(O)cc2)NC(=O)[C@H](CCCCN)NC1=O` (Ac-MCVKYIKYWSVFHCGSGSDYKDDDDK-NH2; disulfide 2-14), the Kd on FGF-R4 ECD [4] (setting [7]) was 17 nM; at FGF-R1C ECD [5], > 10000 nM; at FGF-R3C ECD [6], > 10 µM.
